{"source": "ChEMBL document CHEMBL5137061", "about": "“Design and Measurement of Drug Tissue Concentration Asymmetry and Tissue Exposure-Effect (Tissue PK-PD) Evaluation” (J Med Chem, 2022)", "key": {"[1]": {"assay": "Tmax in BALBnu/CrlCrlj mouse xenografted with human KM12 cell tumor at 0.06 to 0.6 mg/kg, po measured after 48 hrs", "type": "ADME, organism-based", "settings": "in vivo, dose 0.06-0.6 mg/kg"}, "[2]": {"assay": "Tmax in BALBnu/CrlCrlj mouse at 0.1 to 1 mg/kg, po measured for 1 to 24 hrs", "type": "ADME, organism-based", "settings": "in vivo, dose lower 0.1 mg/kg, time lower 1 hrs, dose upper 1 mg/kg, time upper 24 hrs"}}}
{"smiles": "CS(=O)(=O)c1ccc(C(F)(F)F)cc1NC(=O)Nc1cnc(Oc2ccc(-c3cc(Cl)cnc3N)cc2)nc1", "note": "[ONO-7579]", "values": [{"measurement": "Tmax", "setting": "[1]", "result": 7, "unit": "h"}, {"measurement": "Tmax", "setting": "[2]", "result": 2, "unit": "h"}]}
